Source: patent US10941382B2, “Platelet production promoter and method of producing platelets using same” (Kyoto University, priority 2016, dated 2021)

Legend:
MKCL SeV2 = test: Relative number of platelets by FACS (anti-CD41/anti-CD42b) from immortalized megakaryocyte line cultured with inhibitor; assay type: cell-based, human; details: 7th day of cultivation; 6-well dish; medium with 10 μM Y-27632, 50 ng/mL TPO, 50 ng/mL SCF; conclusion from FIG. 3 and FIG. 4 results
Method: The platelet production-promoting effect of the Wnt inhibitor and FLT3 inhibitor was then investigated. MKCL SeV2, on which the aforementioned reporter immortalized megakaryocyte cell line (MKCL#12-23 cre2) was based, was cultured in a 6-well dish on a differentiation medium supplemented with the Wnt or FLT3 inhibitor, 10 μM Y-27632, 50 ng/mL TPO, and 50 ng/mL SCF, or on a differentiation medium supplemented with 0.75 μM SR1, 10 μM Y-27632, 50 ng/mL TPO, and 50 ng/mL SCF (positive control), or on a differentiation medium supplemented with 0.1% DMSO, 10 μM Y-27632, 50 ng/mL TPO, and 50 ng/mL SCF (negative control). On the 7th day of cultivation, the culture medium was suspended and the supernatant was recovered; staining with anti-CD41 antibody and anti-CD42b antibody was performed; and FACS analysis was carried out. The relative number of platelets was calculated with correction of the platelet count for use of the particular inhibitor with the platelet count for the positive control (made 100%) and the platelet count for the negative control (made 0%) (FIG. 4).

iPS cells (TkDA3-4) = test: Platelet production from iPS cell-derived cells under nonuse of feeder cells, FACS (anti-CD41/anti-CD42b); assay type: cell-based; details: 10 days of culture, 1 μM C59 or 3.3 μM FLT3 inhibitor versus 0.75 μM SR1, heparin, Y-27632, TPO, SCF
Method: iPS cells (TkDA3-4) were cultured and a colony was detached using a cell scraper and was cultured on a differentiation medium supplemented with […] VEGF. After 14 days, the cells were recovered using a cell scraper and 25 U/mL heparin, 10 μM Y-27632, 100 ng/mL TPO, and 50 ng/mL SCF were added. 0.1% DMSO, 0.75 μM SR1, 1 μM C59 (Calbiochem), or 3.3 μM FLT3 inhibitor (Santa Cruz Biotechnology) was also added to this culture medium and culture was carried out for 10 days. This was also carried out under the condition of the use of feeder cells as described above. The obtained cells were suspended and the supernatant was recovered; staining with anti-CD41 antibody and anti-CD42b antibody was performed; and FACS analysis was carried out (FIG. 4).

[1] = system: reporter immortalized megakaryocyte cell line (MKCL#12-23 cre2); test: VENUS fluorescence intensity of reporter immortalized megakaryocyte cell line cultured with inhibitor; assay type: cell-based, human; details: 7th day of culture; 96-well dish; medium with 10 μM Y-27632, 50 ng/mL TPO, 50 ng/mL SCF; versus 0.1% DMSO negative control
Method: The platelet production-promoting effect of a Wnt inhibitor and FLT3 inhibitor was then investigated. The aforementioned reporter immortalized megakaryocyte cell line (MKCL#12-23 cre2) was cultured in a 96-well dish on a differentiation medium supplemented with the particular inhibitor at a prescribed concentration, 10 μM Y-27632, 50 ng/mL TPO, and 50 ng/mL SCF, or on a differentiation medium supplemented with 0.75 μM SR1, 10 μM Y-27632, 50 ng/mL TPO, and 50 ng/mL SCF (positive control), or on a differentiation medium supplemented with 0.1% DMSO, 10 μM Y-27632, 50 ng/mL TPO, and 50 ng/mL SCF (negative control). When the VENUS fluorescence intensity was measured on the cells on the 7th day of culture, the fluorescence intensity was increased for media to which the Wnt inhibitor or FLT3 inhibitor had been added. The results of calculation of the relative fluorescence intensity are given in FIG. 3, where the platelet count for use of the particular inhibitor was corrected with the platelet count for the positive control (made 100%) and the platelet count for the negative control (made 0%).

Row | Compound | platelet production-promoting effect (platelet inducer) (MKCL SeV2) | platelet production capacity compared with SR1 (iPS cells (TkDA3-4)) | VENUS fluorescence intensity [1]
1 | Cc1cc(-c2ccc(CC(=O)Nc3ccc(-c4cccnc4)cc3)cc2)ccn1 [C59, 4-(2-methyl-4-pyridinyl)-N-[4-(3-pyridinyl)phenyl]benzeneacetamide] | strong platelet inducers | same as or greater | increased
2 | COc1ccc(C(=O)Nc2sc3c(c2C(N)=O)CCCC3)cc1OC [FLT3 inhibitor, 2-[(3,4-dimethoxybenzoyl)amino]-4,5,6,7-tetrahydrobenzo[b]thiophene-3-carboxamide] | strong platelet inducers | same as or greater | increased
